Reference: patent US8030354B2, “Substituted biphenyl GPR40 modulators” (Amgen Inc., priority 2007, dated 2011)

Assays:
[1] = biological target: T1, GPR40 (Homo sapiens, UniProt O14842); assay: Inositol phosphate accumulation assay (A9_GPR40 cells); format: cell-based; design: expressed in transfected cells; host or cells: CHO cells stably transfected with GPR40 and aequorin; conditions: inositol phosphate assay, A9_GPR40 cells, 1 hour; read-out: IP3 EC50
Outline: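 [^3H] inositol phosphate accumulation was measured by SPA after 1 h compound exposure at 37° C in HBSS/10 mM LiCl containing HSA, ending with a 20 mM formic acid quench. The GPR40-transfected A9 cells had first been labelled overnight (16 h) with 1 μCi/mL ^3H-inositol.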

[2] = biological target: T1, GPR40; assay: Cell-based aequorin assay (CHO cells stably expressing GPR40 and aequorin); design: expressed in transfected cells; host or cells: CHO cells stably transfected with GPR40 and aequorin; conditions: activation of human GPR40, CHO cells, 0.01% HSA
Outline: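 CHO cells stably co-expressing GPR40 and aequorin, loaded with coelenterazine (1 ug/mL, 2 h, room temperature) in H/HBSS with 20 mM Hepes and 0.01% fatty acid-free HSA. Serially diluted compounds added; luminescence recorded over 20 s. EC50 from dose-response of maximum relative light units.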

T1 sequence (O14842 whole entry): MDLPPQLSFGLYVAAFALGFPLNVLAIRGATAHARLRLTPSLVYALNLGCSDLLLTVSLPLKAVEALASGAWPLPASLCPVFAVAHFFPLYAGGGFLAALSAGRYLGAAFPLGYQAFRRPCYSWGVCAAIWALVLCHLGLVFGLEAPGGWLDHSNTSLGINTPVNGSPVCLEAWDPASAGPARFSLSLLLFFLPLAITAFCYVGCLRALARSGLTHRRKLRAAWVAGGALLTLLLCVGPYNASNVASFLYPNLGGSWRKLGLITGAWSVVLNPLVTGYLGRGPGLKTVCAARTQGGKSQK

Compound	EC50 [1] [µM]	EC50 [2] [µM]
COc1cccc(-c2ccc(COc3cccc(C(CC(=O)O)C4CC4)c3)cc2C2CCCCCC2)c1 (single isomer, unassigned) [Example 66.9, (3S)-3-(3-(((2-Cycloheptyl-3′-(methyloxy)-1,1′-biphenyl-4-yl)methyl)oxy)phenyl)-3-cyclopropylpropanoic acid or (3R)-3-(3-(((2-cycloheptyl-3′-(methyloxy)-1,1′-biphenyl-4-yl)methyl)oxy)phenyl)-3-cyclopropylpropanoic acid]	0.01 to 0.1	0.1 to 1
CC1(C)CCC[C@@H]1c1cc(COc2cccc([C@@H](CC(=O)O)C3CC3)c2)ccc1-c1cccc(OC(F)F)c1 (single isomer, unassigned) [Example 66.11]	0.01 to 0.1	0.1 to 1
COc1ccc(F)c(-c2ccc(COc3cccc([C@@H](CC(=O)O)C4CC4)c3)cc2[C@@H](OC)C(C)(C)C)c1 (single isomer, unassigned) [Example 66.13]	< 0.01	0.1 to 1
COc1ccc(F)c(-c2ccc(COc3cccc([C@@H](CC(=O)O)C4CC4)c3)cc2[C@@H]2CCCCC2(C)C)c1 (single isomer, unassigned) [Example 66.22]	< 0.01	0.01 to 0.1
COc1ccc(F)c(-c2ccc(COc3cccc([C@@H](CC(=O)O)C4CC4)c3)cc2[C@H](OC)C(C)(C)C)c1 (single isomer, unassigned) [Example 66.24]	0.1 to 1	1 to 10
CCOc1ccc(F)c(-c2ccc(COc3cccc([C@@H](CC(=O)O)C4CC4)c3)cc2[C@@H]2CCCC2(C)C)c1 (single isomer, unassigned) [Example 66.25]	1 to 10	1 to 10
COc1ccc(F)c(-c2ccc(COc3cccc([C@@H](CC(=O)O)C4CC4)c3)cc2[C@@H](OCc2ccccc2)C(C)(C)C)c1 (single isomer, unassigned) [Example 66.28]	< 0.01	0.1 to 1
COc1ccc(F)c(-c2ccc(COc3cccc([C@@H](CC(=O)O)C4CC4)c3)cc2[C@H](F)C(C)(C)C)c1 (single isomer, unassigned) [Example 66.31]	0.01 to 0.1	0.1 to 1
COC(c1cc(COc2cccc(C(CC(=O)O)C3CC3)c2)ccc1-c1ccccc1F)C(C)(C)C (single isomer, unassigned) [Example 66.33]	0.01 to 0.1	0.1 to 1
COc1cc(-c2ccc(COc3cccc(C(CC(=O)O)C4CC4)c3)cc2C2CCCC2(C)C)c(F)cn1 (single isomer, unassigned) [Example 66.36]	< 0.01	0.01 to 0.1
COc1cc(-c2ccc(COc3cccc([C@@H](CC(=O)O)C4CC4)c3)cc2[C@@H]2CCCC2(C)C)c(F)cn1 (single isomer, unassigned) [Example 66.37]	0.01 to 0.1	0.1 to 1
COCC(C)(C)C(OC)c1cc(COc2cccc(C(CC(=O)O)C3CC3)c2)ccc1-c1cc(OC)ccc1F (single isomer, unassigned) [Example 66.42, (S)-3-Cyclopropyl-3-{3-[2-(1,3-dimethoxy-2,2-dimethyl-propyl)-2′-fluoro-5′-methoxy-biphenyl-4-ylmethoxy]-phenyl}-propionic acid or (S)-3-Cyclopropyl-3-{3-[2-(1,3-dimethoxy-2,2-dimethyl-propyl)-2′-fluoro-5′-methoxy-biphenyl-4-ylmethoxy]-phenyl}-propionic acid]	0.01 to 0.1	0.1 to 1
CC1(C)CCC[C@@H]1c1cc(COc2cccc([C@@H](CC(=O)O)C3CC3)c2)ccc1-c1cc(C(F)F)ccc1F (single isomer, unassigned) [Example 66.51]	0.01 to 0.1	0.1 to 1

Other lines, results leading:

EC50 [1] [µM]	EC50 [2] [µM]	Compound
< 0.01	0.1 to 1	COc1ccc(F)c(-c2ccc(COc3cccc(C(CC(=O)O)C4CC4)c3)cc2C2=CCCCC2(C)C)c1 (single isomer, unassigned) [Example 66.10, (3S)-3-Cyclopropyl-3-(3-(((2-(6,6-dimethyl-1-cyclohexen-1-yl)-2′-fluoro-5′-(methyloxy)-1,1′-biphenyl-4-yl)methyl)oxy)phenyl)propanoic acid or (3R)-3-cyclopropyl-3-(3-(((2-(6,6-dimethyl-1-cyclohexen-1-yl)-2′-fluoro-5′-(methyloxy)-1,1′-biphenyl-4-yl)methyl)oxy)phenyl)propanoic acid]
0.01 to 0.1	0.1 to 1	COc1cc(-c2ccc(COc3cccc([C@@H](CC(=O)O)C4CC4)c3)cc2C2=CCCC2(C)C)c(F)cn1 (single isomer, unassigned) [Example 66.12, (3S)-3-(3-(3-(5,5-Dimethylcyclopent-1-enyl)-4-(5-fluoro-2-methoxypyridin-4-yl)benzyloxy)phenyl)-3-cyclopropylpropanoic acid or (3R)-3-(3-(3-(5,5-dimethylcyclopent-1-enyl)-4-(5-fluoro-2-methoxypyridin-4-yl)benzyloxy)phenyl)-3-cyclopropylpropanoic acid]
< 0.01	0.01 to 0.1	COc1ccc(F)c(-c2ccc(COc3cccc(C(CC(=O)O)C4CC4)c3)cc2C(C)C(C)(C)C)c1 (single isomer, unassigned) [Example 66.19]
0.01 to 0.1	0.1 to 1	COc1ccc(F)c(-c2ccc(COc3cccc([C@@H](CC(=O)O)C4CC4)c3)cc2CC(C)C)c1 (single isomer, unassigned) [Example 66.20, (3S)-3-Cyclopropyl-3-(3-(((2′-fluoro-5′-(methyloxy)-2-(2-methylpropyl)-1,1′-biphenyl-4-yl)methyl)oxy)phenyl)propanoic acid or (3R)-3-cyclopropyl-3-(3-(((2′-fluoro-5′-(methyloxy)-2-(2-methylpropyl)-1,1′-biphenyl-4-yl)methyl)oxy)phenyl)propanoic acid]
0.01 to 0.1	0.1 to 1	CCOc1ccc(F)c(-c2ccc(COc3cccc(C(CC(=O)O)C4CC4)c3)cc2C2CCCC2(C)C)c1 (single isomer, unassigned) [Example 66.26]
0.01 to 0.1	0.01 to 0.1	COc1cc(-c2ccc(COc3cccc(C(CC(=O)O)C4CC4)c3)cc2C2=CCCCC2(C)C)c(F)cn1 (single isomer, unassigned) [Example 66.34, (3S)-3-Cyclopropyl-3-(3-(((3-(6,6-dimethyl-1-cyclohexen-1-yl)-4-(5-fluoro-2-(methyloxy)-4-pyridinyl)phenyl)methyl)oxy)phenyl)propanoic acid or (3S)-3-Cyclopropyl-3-(3-(((3-(6,6-dimethyl-1-cyclohexen-1-yl)-4-(5-fluoro-2-(methyloxy)-4-pyridinyl)phenyl)methyl)oxy)phenyl)propanoic acid]
0.01 to 0.1	0.1 to 1	COc1ccc(F)c(-c2ccc(COc3cccc([C@@H](CC(=O)O)C4CC4)c3)cc2C2N(C)CCCC2(C)C)c1 (single isomer, unassigned) [Example 66.40, (S)-3-Cyclopropyl-3-{3-[2′-fluoro-5′-methoxy-2-(1,3,3-trimethyl-piperidin-2-yl)-biphenyl-4-ylmethoxy]-phenyl}-propionic acid or (R)-3-cyclopropyl-3-{3-[2′-fluoro-5′-methoxy-2-(1,3,3-trimethyl-piperidin-2-yl)-biphenyl-4-ylmethoxy]-phenyl}-propionic acid]
< 0.01	0.1 to 1	COc1ccc(F)c(-c2cc(F)c(COc3cccc([C@@H](CC(=O)O)C4CC4)c3)cc2C2=CCCC2(C)C)c1 (single isomer, unassigned) [Example 66.43, (3S)-3-Cyclopropyl-3-(3-(((2-(5,5-dimethyl-1-cyclopenten-1-yl)-2′,5-difluoro-5′-(methyloxy)-1,1′-biphenyl-4-yl)methyl)oxy)phenyl)propanoic acid or (3R)-3-cyclopropyl-3-(3-(((2-(5,5-dimethyl-1-cyclopenten-1-yl)-2′,5-difluoro-5′-(methyloxy)-1,1′-biphenyl-4-yl)methyl)oxy)phenyl)propanoic acid]
< 0.01	0.01 to 0.1	COc1ccc(F)c(-c2cc(F)c(COc3cccc([C@@H](CC(=O)O)C4CC4)c3)cc2[C@H]2CCCC2(C)C)c1 (single isomer, unassigned) [Example 66.44]
0.01 to 0.1	0.1 to 1	COc1ccc(F)c(-c2c(F)cc(COc3cccc([C@@H](CC(=O)O)C4CC4)c3)cc2C2=CCCC2(C)C)c1 (single isomer, unassigned) [Example 66.49, (3S)-3-Cyclopropyl-3-(3-(((2-(5,5-dimethyl-1-cyclopenten-1-yl)-2′,6-difluoro-5′-(methyloxy)-1,1′-biphenyl-4-yl)methyl)oxy)phenyl)propanoic acid or (3R)-3-cyclopropyl-3-(3-(((2-(5,5-dimethyl-1-cyclopenten-1-yl)-2′,6-difluoro-5′-(methyloxy)-1,1′-biphenyl-4-yl)methyl)oxy)phenyl)propanoic acid]
0.1 to 1	0.1 to 1	CC1(C)CCC=C1c1cc(COc2cccc([C@@H](CC(=O)O)C3CC3)c2)ccc1-c1cc(C(F)F)ccc1F (single isomer, unassigned) [Example 66.50, (3S)-3-Cyclopropyl-3-(3-(((5′-(difluoromethyl)-2-(5,5-dimethyl-1-cyclopenten-1-yl)-2′-fluoro-1,1′-biphenyl-4-yl)methyl)oxy)phenyl)propanoic acid or (3R)-3-cyclopropyl-3-(3-(((5′-(difluoromethyl)-2-(5,5-dimethyl-1-cyclopenten-1-yl)-2′-fluoro-1,1′-biphenyl-4-yl)methyl)oxy)phenyl)propanoic acid]
